# Source: article PMC8387461, “T cell receptor recognition of hybrid insulin peptides bound to HLA-DQ8” (Nature Communications, 2021)
# How the values were obtained:
# CD4+ T cell clone A1.9 = test: T cell stimulation assay, IFNγ ELISA, clone A1.9; assay type: cell-based, human; settings: primary clone A1.9, APC EBV-KJ, 24 h, 31-mer C-peptide versus 15mer HIP titration
# Procedure: Fig. 2 Comparison of the stimulatory capacity of full-length proinsulin C-peptide and HIP on T1D CD4 + T cell clones. […] Titration of full-length 31-mer C-peptide ([…], (open circles) and 15mer C-peptide-IAPP2 HIP ([…] (filled circles). Antigen presenting cells (APC) were the EBV line, EBV-KJ, (2 × 10^4 cells/well). APC were cultured for 24 h with the same number (2 × 10^4 cells/well) of the primary CD4 + T-cell clone and the peptide concentration indicated. T-cell response to peptide were indicated by secretion of IFNγ which was measured in triplicate by ELISA and reported as pg/ml. Mean and standard deviations of triplicate IFNγ measurements are shown. Results are representative of two experiments for each clone.
# For primary T1D CD4+ T cell clones, cells were thawed and used directly in functional assays. For T cell stimulation assays, cloned CD4+ T cells were incubated with BLCL KJ (; HLA-DQ8 + : HLA-DQA1*03:01, HLA-DQB1*03:02), as APCs, together with synthetic peptides. For the alanine scan experiments, each peptide was added to a final concentration of 10 μM. T cell response to antigen was measured as interferon gamma (IFNγ) secretion into the culture media. The IFNγ concentration in the culture media was determined by ELISA (Biolegend).
# Supplementary Figure 8. […]
# type) at each position P-3 to P12 are shown. IFNγ was measured in triplicate by ELISA, concentrations are shown in pg/ml. […]
# HLA-DQ8 [1] = test: Size exclusion chromatography, aggregate versus monomer of HLA-DQ8-peptide; assay type: physicochemical, human; settings: SEC, data not shown
# Text: The proinsulin C-peptide epitope (PI40-54 […]; predicted binding register in bold) lacks both a preferred acidic residue at P9 and aliphatic residue at P4, whereas HIP ([…]) lacks the preferred P4 residue. […] To overcome this, as undertaken previously with a modified B:11-23 peptide and HLA-DQ8[22], we engineered a construct with a disulfide bond between p11 of the HIP peptide or proinsulin C-peptide and HLA-DQ8α I72C to produce HLA-DQ8αΙ72C-CpepL11C (HLA-DQ8-CpepL11C; […]; predicted binding register in bold, P11Cys in italics) and HLA-DQ8αΙ72C-HIPL11C (HLA-DQ8-HIPL11C; […]; predicted binding register in bold, proinsulin C-peptide derived underlined, IAPP2 derived bold italics and P11Cys italics).
# T cells = settings: HIP from MHC-II peptidome of pancreatic islets and lymph nodes of NOD mice; cited from earlier work
# T1D3 T cell clone = settings: cited from earlier work
# Text: (§1) Yang et al.[39] described a TRBV5-1^+ HLA-DQ8 restricted T cell clone isolated by insulin B:9-23 peptide (B:9-23 […]) tetramer staining. […] The set of mutations comprised P1AtoE, P6CtoA and P9RtoE and P11FtoC ([…]; mutated residues in italics, P1-P9 register in bold)[22],[24],[39]. This engineered epitope was used as a model put forw ...
# HLA-DQ8 [2] = settings: cited from earlier work
# Text: as §1
substance,measurement,setting,value
"EAEDLQVGQVELGGGPGAGSLQPLALEGSLQ [proinsulin C-peptide, full-length 31-mer proinsulin C-peptide, reference compound]",response of clone to HIP versus proinsulin C-peptide,CD4+ T cell clone A1.9,responds equally to proinsulin C-peptide or HIP
"GQVELGGGPGAGSLQ [PI40-54, reference compound]",stability of HLA-DQ8 complex (ratio of aggregate versus monomer),HLA-DQ8 [1],unstable HLA-DQ8 binary complexes
LQTLAL–NAARD [proinsulin C-peptide-IAPP2 HIP from NOD mice],T cell autoreactivity,T cells,had T cell autoreactivity
LVEELYLVAGEEGC [engineered insulin B:9-23 peptide],reactivity of / recognition by TRBV5-1+ T1D3,T1D3 T cell clone,recognised by the TRBV5-1^+ T1D3 TCR
SHLVEALYLVCGERG [B:9-23],affinity for HLA-DQ8,HLA-DQ8 [2],poor affinity
same,reactivity of / recognition by TRBV5-1+ T1D3,T1D3 T cell clone,low reactivity
